Laboratory results as given in the supplement of paper PMC10307832.

Compound: CCN(CC)CCNC(=O)c1c(C)[nH]c(/C=C2\C(=O)Nc3ccc(F)cc32)c1C [Sunitinib] + COc1cc2c(Oc3ccc(NC(=O)C4(C(=O)Nc5ccc(F)cc5)CC4)cc3F)ccnc2cc1OCCCN1CCOCC1 [Foretinib] (partner 0.25 µM)
Experiment: relative viability (nuclei count vs DMSO), 5 days (fraction); higher = more cells survive
In short: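 Dosing by pin tool came one day after lung cancer cell lines were seeded in 1536-well plates, using either one drug or a fixed anchor-drug dose plus five library-drug doses (not always all listed) in √10 steps. After 5 days, nuclei were counted on 4× images. Relative viability is treated-well nuclei count divided by vehicle-well nuclei count, and values are medians of duplicate plates.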

Cell Line | relative viability (first compound 0.02 µM) | relative viability (first compound 0.06325 µM) | relative viability (first compound 0.2 µM) | relative viability (first compound 0.6325 µM) | relative viability (first compound 2 µM)
LOU-NH91 | 0.939 | 0.974 | 1.04 | 0.998 | 0.878
HCC-15 | 1.07 | 1.14 | 1.16 | 1.13 | 1.02
HCC-827 | 1.05 | 0.958 | 1.04 | 1.03 | 1.07
NCI-H1734 | 0.815 | 0.896 | 0.966 | – | 0.752
NCI-H322M | 0.906 | – | 1.14 | 1.13 | 0.869
SW 1573 | 0.879 | 0.928 | 0.889 | 1.09 | 0.998
NCI-H2126 | 1.13 | 1.31 | 1.34 | 1.47 | 1.31
201T | 1.01 | 1.1 | 1.22 | 1.17 | 1.01
NCI-H2009 | 1.19 | 1.25 | 1.31 | 1.27 | 1.3
NCI-H2087 | 1.12 | 1.28 | 1.15 | 1.07 | 1.11
CAL-12T | 1.07 | 1.27 | 1.32 | 1.03 | 1.28
UMC-11 | 0.962 | 1.03 | 1.11 | 1.06 | 0.956
NCI-H1793 | 0.649 | 0.675 | 0.753 | 0.723 | 0.593
SK-LU-1 | – | 0.901 | 1.06 | 0.834 | 0.581
NCI-H1437 | 1.24 | 1.25 | 1.28 | 1.22 | 1.32
NCI-H2023 | 0.739 | 0.887 | 0.981 | 0.659 | 0.78
LK-2 | 1.1 | 1.56 | 1.72 | 1.42 | 1.24
RERF-LC-KJ | 0.873 | 0.907 | 0.903 | 0.87 | 0.919
IA-LM | 1.12 | 1.32 | 1.25 | 1.14 | 1.19
NCI-H1755 | 0.891 | 0.897 | 0.959 | 0.981 | 0.936
NCI-H2170 | 0.987 | 1.01 | 1.05 | 1.01 | 0.843
NCI-H441 | 0.771 | 0.953 | – | 1.01 | 1.04
LXF-289 | 0.979 | 1.02 | 1.02 | 1.03 | 1.1
PC-14 | 0.942 | 0.939 | 1.08 | 1 | 0.874
ABC-1 | 1.01 | 1.07 | 1.3 | 1.26 | 1

Cell Line | relative viability (first compound 0.02 µM) | relative viability (first compound 0.06325 µM) | relative viability (first compound 0.2 µM) | relative viability (first compound 0.6325 µM) | relative viability (first compound 2 µM)
COR-L23 | 0.972 | 0.945 | 1.14 | 0.961 | 0.969
NCI-H647 | – | 1.03 | 1.34 | 1.13 | 1.21
NCI-H2347 | 0.704 | 0.708 | 1.03 | – | 1.36
EKVX | 0.739 | 0.752 | 0.918 | 1.3 | 0.892
HCC-78 | 0.527 | 0.588 | 0.525 | 0.545 | 0.613
NCI-H650 | 1.03 | 1.01 | 1.06 | 1.11 | 0.975
NCI-H1915 | 1.07 | 1.11 | 1.14 | 1.13 | 1.15
NCI-H596 | 0.688 | 0.949 | 0.779 | 0.849 | 0.649
EMC-BAC-2 | 0.973 | 1.08 | 1.15 | 1.07 | 0.969
SW 900 | 0.834 | 0.934 | 0.865 | 0.966 | 0.834
BEN | 0.598 | 0.704 | 0.576 | 0.665 | 0.644
NCI-H727 | 0.926 | 0.837 | 1.12 | 0.979 | 0.788
H3255 | 0.782 | 0.573 | 0.819 | 0.861 | 1.01
NCI-H661 | 1.06 | 1.07 | 1.01 | – | 1.04
NCI-H1993 | 0.746 | 0.691 | 0.789 | 0.685 | 0.73
NCI-H2085 | 0.851 | – | 1.02 | 0.957 | 0.935
NCI-H838 | 1.04 | 1 | 1.14 | 1.08 | 0.826
NCI-H1944 | 0.738 | 1 | 0.962 | 0.944 | 0.863
NCI-H1650 | 1.23 | 1.14 | 1.09 | 0.977 | 1.08
NCI-H1395 | 0.955 | 0.996 | 1.05 | 1 | 1.14
NCI-H1355 | 0.957 | 0.802 | – | – | 0.68
HOP-62 | 0.923 | 1.21 | 1.2 | 1.22 | 1.18
NCI-H2405 | 1.07 | 1.06 | 1.09 | 1.05 | 1.11
NCI-H358 | 0.716 | 0.774 | 0.8 | 0.748 | 0.527
EPLC-272H | 0.702 | 0.65 | – | 0.771 | 0.637

Cell Line | relative viability (first compound 0.02 µM) | relative viability (first compound 0.06325 µM) | relative viability (first compound 0.2 µM) | relative viability (first compound 0.6325 µM) | relative viability (first compound 2 µM)
A549 | 1.06 | 0.951 | 1.09 | 1.05 | 0.974
NCI-H3122 | 0.904 | 0.963 | 1.04 | 0.976 | 0.97
NCI-H1651 | 0.762 | 0.843 | 0.877 | 0.826 | 0.806
SK-MES-1 | 0.932 | 0.932 | 1.03 | 1.09 | 0.894
LCLC-103H | 0.702 | 1.01 | 0.922 | 0.873 | 0.791
HCC-366 | 0.864 | 0.908 | 0.919 | 0.827 | 0.871
NCI-H460 | 0.879 | 1.08 | 1.03 | 1.05 | 1.06
NCI-H1299 | 1.07 | 1.15 | 1.14 | 1.08 | 1.12
COR-L 105 | 1.07 | 1.22 | 0.952 | 1.12 | 1.12
Calu-6 | 0.836 | 0.951 | 0.913 | 0.963 | –
NCI-H1975 | 0.899 | 1.03 | 1.07 | 1.01 | 1.01
NCI-H1563 | 0.822 | 1.05 | 0.999 | 1.03 | 0.993
NCI-H2228 | 0.844 | 0.833 | 0.963 | 0.842 | 0.657
LC-2-ad | 0.868 | 0.949 | 0.952 | 0.99 | 0.861
HARA | 0.857 | 1.13 | 0.97 | 0.991 | 0.868
PC-3 [JPC-3] | – | 1.05 | 1.12 | 1.02 | 1.01
LCLC-97TM1 | 0.926 | – | 1.13 | 0.991 | 0.926
LU99A | 0.731 | 0.894 | 0.931 | 1.01 | 0.91
NCI-H1666 | 0.912 | 1 | 1.05 | 1.04 | 1.01
NCI-H520 | 0.593 | 0.843 | 0.798 | 1 | 0.605
A-427 | 1.03 | 1.12 | 1.08 | 1.1 | 1.11
ChaGo-K-1 | 0.852 | 0.906 | 1 | 0.914 | 0.869
NCI-H1703 | 0.333 | 0.25 | 0.284 | 0.306 | 0.254
NCI-H23 | 0.875 | 1.25 | 1.03 | 1.1 | 0.749
